Results as given in a compilation of properties of binary mixtures (doi:10.1021/je950194b).

Assay: excess molar enthalpy (molar enthalpy of mixing); xn = mol fraction of the nth substance listed
Conditions: 313.15 K, 100 kPa

CCC(=O)O + CCCCCCCC
Conditions	excess molar enthalpy [kcal/mol]
x1 = 0.1539	0.065
x1 = 0.2144	0.0856
x1 = 0.2668	0.104
x1 = 0.3531	0.126
x1 = 0.4212	0.138
x1 = 0.5219	0.146
x1 = 0.5928	0.146
x1 = 0.7661	0.11
x1 = 0.8137	0.0932
x1 = 0.8676	0.0715
x1 = 0.8973	0.0566
x1 = 0.9291	0.0406

CCC(=O)O + Cc1cc(C)cc(C)c1
Conditions	excess molar enthalpy [kcal/mol]
x1 = 0.0444	0.0055
x1 = 0.0548	0.00574
x1 = 0.0718	0.00598
x1 = 0.134	0.00335
x1 = 0.1884	-0.000239
x1 = 0.2364	-0.00287
x1 = 0.3171	-0.00526
x1 = 0.3824	-0.00717
x1 = 0.4815	-0.00813
x1 = 0.5532	-0.0086
x1 = 0.65	-0.00813
x1 = 0.7359	-0.00645
x1 = 0.7879	-0.00574
x1 = 0.8479	-0.0043
x1 = 0.9176	-0.00287
x1 = 0.9571	-0.00191

CCC(=O)O + C1COCCO1
Conditions	excess molar enthalpy [kcal/mol]
x1 = 0.087	-0.0294
x1 = 0.125	-0.0351
x1 = 0.16	-0.039
x1 = 0.2222	-0.0406
x1 = 0.2759	-0.0392
x1 = 0.3636	-0.0318
x1 = 0.4325	-0.0239
x1 = 0.5334	-0.0103
x1 = 0.6957	0.0131
x1 = 0.7742	0.0206
x1 = 0.8728	0.0203
x1 = 0.9014	0.0174
x1 = 0.9648	0.00813

CCC(=O)O + C1CCCCC1
Conditions	excess molar enthalpy [kcal/mol]
x1 = 0.0571	0.0337
x1 = 0.108	0.0657
x1 = 0.1537	0.0913
x1 = 0.195	0.112
x1 = 0.3264	0.154
x1 = 0.4209	0.168
x1 = 0.4921	0.171
x1 = 0.5924	0.167
x1 = 0.6856	0.147
x1 = 0.744	0.129
x1 = 0.8134	0.0982
x1 = 0.8971	0.0507
x1 = 0.9208	0.0359
x1 = 0.9458	0.0196

CCC(=O)O + C1CCOCC1
Conditions	excess molar enthalpy [kcal/mol]
x1 = 0.0528	-0.0263
x1 = 0.1003	-0.0504
x1 = 0.1433	-0.0679
x1 = 0.1823	-0.0813
x1 = 0.3085	-0.112
x1 = 0.4009	-0.121
x1 = 0.6675	-0.101
x1 = 0.8006	-0.0648
x1 = 0.8893	-0.0335
x1 = 0.9146	-0.0229
x1 = 0.9414	-0.0127
x1 = 0.9698	-0.00598
